Laboratory results as given in US20070249827A1, “Meropenem Intermediatein in Crystalling Form” (SANDOZ AG, priority 2004, published 2007).

Experiment: Stability comparison between crystalline form and amorphous form (storage 72 h at 70° C.)
Assay type: physicochemical
Conditions: for content, starting value / sum of all by-products, starting value: before storage

Row | SMILES | content after 72 h at 70° C. [% by weight] | sum of all by-products after 72 h at 70° C. | content, starting value [% by weight] | sum of all by-products, starting value [%]
1 | C[C@@H](O)[C@H]1C(=O)N2C(C(=O)OCc3ccc([N+](=O)[O-])cc3)=C(S[C@H]3C[C@@H](C(=O)N(C)C)N(C(=O)OCc4ccc([N+](=O)[O-])cc4)C3)[C@H](C)[C@H]12 [Compound of formula I in crystalline form] [(4R,5S,6S)-(p-nitrobenzyl) 3-[[(3S,5S)-1(-p-nitrobenzyloxycarbonyl)-5-(dimethylaminocarbonyl)-3-pyrrolidinyl]thio]-6-[(1R)-1-hydroxyethyl]-4-methyl-7-oxo-1-azabicyclo[3.2.0]hept-2-ene-2-carboxylate] | 99.1 | <0.3% | 99.4 | <0.3
2 | C[C@@H](O)[C@H]1C(=O)N2C(C(=O)OCc3ccc([N+](=O)[O-])cc3)=C(S[C@H]3C[C@@H](C(=O)N(C)C)N(C(=O)OCc4ccc([N+](=O)[O-])cc4)C3)[C@H](C)[C@H]12 [Compound of formula I in amorphous form, (4R,5S,6S)-(p-nitrobenzyl) 3-[[(3S,5S)-1(-p-nitrobenzyloxycarbonyl)-5-(dimethylaminocarbonyl)-3-pyrrolidinyl]thio]-6-[(1R)-1-hydroxyethyl]-4-methyl-7-oxo-1-azabicyclo[3.2.0]hept-2-ene-2-carboxylate] | 90.8 | sum of all by-products 5.7% | 92.4 | 2.5
